# Results taken from US11542259B2, “Compounds for the treatment of kinase-dependent disorders” (Exelixis, Inc., priority 2018, dated 2023).
# Assays:
# [1] = target: Human Axl (residues H473-A894 with Q764R) (Homo sapiens (Human), UniProt P30530, Q764R); test: Human AXL kinase assay (33P radiometric, KinaseProfiler); format: biochemical; conditions: 10 μM ATP
# [2] = target: Human Mer (residues R557-E882 with H628Q and R794A) (Homo sapiens (Human), UniProt Q12866); test: Human Mer kinase assay (33P radiometric, KinaseProfiler); format: biochemical; conditions: 10 μM ATP
# [3] = target: Met (Homo sapiens (Human), UniProt P08581); test: Met autophosphorylation ELISA in PC-3 cells; format: cell-based; conditions: cellular, HGF stimulated, read-out: c-Met IC50
# In short: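 Phospho-Met (panTyr) sandwich ELISA on lysates of PC-3 cells given 100 ng/mL HGF for 10 min after 1 h compound exposure (8-point curve, 0.3% DMSO) following 3 h serum starvation. Normalised to HGF-stimulated DMSO and reference-inhibitor wells; 4-parameter logistic IC50.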
# [4] = target: KDR (Homo sapiens (Human), UniProt P35968); test: KDR autophosphorylation ELISA in HUVEC cells; format: cell-based; conditions: cellular, VEGF165 stimulated
# In short: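 Inhibition of VEGF165-induced KDR phosphorylation was determined in serum-starved HUVEC after 1 h compound pretreatment and 5 min stimulation with 100 ng/mL VEGF165. Lysate phospho-KDR was measured by ELISA; IC50 values came from a 4-parameter logistic fit of 8-point curves.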
# Human Axl (residues H473-A894 with Q764R), sequence (P30530 473-894 Q764R): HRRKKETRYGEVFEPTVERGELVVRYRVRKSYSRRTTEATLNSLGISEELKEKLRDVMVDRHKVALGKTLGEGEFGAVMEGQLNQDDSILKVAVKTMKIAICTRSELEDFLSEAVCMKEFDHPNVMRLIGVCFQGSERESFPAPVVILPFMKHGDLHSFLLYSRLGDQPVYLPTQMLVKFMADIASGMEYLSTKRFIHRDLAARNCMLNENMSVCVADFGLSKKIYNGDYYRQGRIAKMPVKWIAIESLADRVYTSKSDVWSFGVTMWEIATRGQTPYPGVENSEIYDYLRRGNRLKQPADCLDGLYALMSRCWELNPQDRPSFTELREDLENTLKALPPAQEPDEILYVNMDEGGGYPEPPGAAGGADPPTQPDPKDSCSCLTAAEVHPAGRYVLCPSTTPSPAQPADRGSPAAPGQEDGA
# KDR, sequence (P35968 20-1356): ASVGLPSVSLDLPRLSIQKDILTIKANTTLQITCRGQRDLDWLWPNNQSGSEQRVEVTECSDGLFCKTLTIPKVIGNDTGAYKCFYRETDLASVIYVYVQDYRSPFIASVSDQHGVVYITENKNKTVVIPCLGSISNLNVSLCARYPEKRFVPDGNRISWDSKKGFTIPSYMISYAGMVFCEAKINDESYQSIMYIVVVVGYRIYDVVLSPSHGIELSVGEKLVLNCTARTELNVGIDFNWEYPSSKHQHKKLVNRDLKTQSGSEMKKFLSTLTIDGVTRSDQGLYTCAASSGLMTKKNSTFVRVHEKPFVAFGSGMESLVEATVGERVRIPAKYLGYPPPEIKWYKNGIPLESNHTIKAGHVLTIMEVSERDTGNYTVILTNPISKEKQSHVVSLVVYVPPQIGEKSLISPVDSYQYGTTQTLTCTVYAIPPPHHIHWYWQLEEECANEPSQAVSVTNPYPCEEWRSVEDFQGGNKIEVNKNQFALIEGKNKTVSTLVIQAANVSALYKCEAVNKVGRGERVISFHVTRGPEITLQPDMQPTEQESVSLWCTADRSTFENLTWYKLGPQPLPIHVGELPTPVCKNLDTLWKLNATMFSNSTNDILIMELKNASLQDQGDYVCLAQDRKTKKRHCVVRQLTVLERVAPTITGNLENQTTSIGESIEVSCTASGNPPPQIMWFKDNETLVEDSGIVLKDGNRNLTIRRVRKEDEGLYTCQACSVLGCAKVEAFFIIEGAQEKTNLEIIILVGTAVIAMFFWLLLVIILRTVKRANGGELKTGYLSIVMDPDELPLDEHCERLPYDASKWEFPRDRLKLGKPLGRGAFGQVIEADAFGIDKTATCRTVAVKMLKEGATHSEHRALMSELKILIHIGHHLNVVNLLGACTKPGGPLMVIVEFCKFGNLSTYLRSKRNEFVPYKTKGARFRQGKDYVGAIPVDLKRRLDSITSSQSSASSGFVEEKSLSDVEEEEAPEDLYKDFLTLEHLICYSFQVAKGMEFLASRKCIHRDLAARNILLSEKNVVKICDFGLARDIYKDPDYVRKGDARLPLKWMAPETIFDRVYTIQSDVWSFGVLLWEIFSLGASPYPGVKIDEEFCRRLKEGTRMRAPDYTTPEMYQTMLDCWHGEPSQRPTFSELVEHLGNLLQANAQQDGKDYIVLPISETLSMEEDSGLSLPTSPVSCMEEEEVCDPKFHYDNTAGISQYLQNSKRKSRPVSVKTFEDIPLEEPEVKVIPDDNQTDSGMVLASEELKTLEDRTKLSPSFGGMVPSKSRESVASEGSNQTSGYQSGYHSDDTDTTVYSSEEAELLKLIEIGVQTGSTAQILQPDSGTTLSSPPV
# Met, sequence (P08581 25-1390): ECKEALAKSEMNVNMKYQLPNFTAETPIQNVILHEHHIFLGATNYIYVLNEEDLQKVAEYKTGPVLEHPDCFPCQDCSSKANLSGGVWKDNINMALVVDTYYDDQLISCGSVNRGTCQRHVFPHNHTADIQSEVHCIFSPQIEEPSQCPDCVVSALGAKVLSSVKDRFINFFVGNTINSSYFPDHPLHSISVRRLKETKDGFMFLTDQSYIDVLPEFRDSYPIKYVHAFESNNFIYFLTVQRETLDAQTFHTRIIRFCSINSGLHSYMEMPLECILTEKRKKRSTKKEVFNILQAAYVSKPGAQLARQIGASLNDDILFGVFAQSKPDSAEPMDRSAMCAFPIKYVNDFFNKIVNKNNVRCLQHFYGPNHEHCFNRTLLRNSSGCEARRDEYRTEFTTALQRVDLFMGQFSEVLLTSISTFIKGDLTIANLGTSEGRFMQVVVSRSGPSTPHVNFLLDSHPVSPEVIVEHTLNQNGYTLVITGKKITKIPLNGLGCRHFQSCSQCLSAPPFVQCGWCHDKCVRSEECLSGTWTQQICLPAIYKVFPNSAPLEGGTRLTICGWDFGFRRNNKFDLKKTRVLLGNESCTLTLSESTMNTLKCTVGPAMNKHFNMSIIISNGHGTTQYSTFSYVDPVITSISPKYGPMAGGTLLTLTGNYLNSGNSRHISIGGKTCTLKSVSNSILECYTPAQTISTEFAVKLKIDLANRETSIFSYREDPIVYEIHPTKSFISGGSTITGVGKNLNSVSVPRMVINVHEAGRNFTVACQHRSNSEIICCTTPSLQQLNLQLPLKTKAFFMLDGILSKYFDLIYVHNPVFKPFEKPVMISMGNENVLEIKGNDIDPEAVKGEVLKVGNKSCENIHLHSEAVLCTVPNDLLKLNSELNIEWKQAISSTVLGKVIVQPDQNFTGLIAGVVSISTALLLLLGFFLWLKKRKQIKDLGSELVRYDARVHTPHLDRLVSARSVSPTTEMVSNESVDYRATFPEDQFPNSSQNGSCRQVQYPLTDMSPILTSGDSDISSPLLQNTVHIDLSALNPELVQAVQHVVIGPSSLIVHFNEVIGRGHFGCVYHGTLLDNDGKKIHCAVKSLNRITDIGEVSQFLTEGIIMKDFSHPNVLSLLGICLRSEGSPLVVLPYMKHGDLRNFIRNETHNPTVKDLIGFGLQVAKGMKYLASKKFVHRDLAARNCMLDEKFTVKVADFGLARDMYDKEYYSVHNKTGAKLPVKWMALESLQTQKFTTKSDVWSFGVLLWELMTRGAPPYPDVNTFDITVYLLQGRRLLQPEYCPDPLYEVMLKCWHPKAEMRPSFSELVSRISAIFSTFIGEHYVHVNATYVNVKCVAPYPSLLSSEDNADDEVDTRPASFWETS
# Human Mer (residues R557-E882 with H628Q and R794A), sequence (Q12866 557-882, stated change not applied): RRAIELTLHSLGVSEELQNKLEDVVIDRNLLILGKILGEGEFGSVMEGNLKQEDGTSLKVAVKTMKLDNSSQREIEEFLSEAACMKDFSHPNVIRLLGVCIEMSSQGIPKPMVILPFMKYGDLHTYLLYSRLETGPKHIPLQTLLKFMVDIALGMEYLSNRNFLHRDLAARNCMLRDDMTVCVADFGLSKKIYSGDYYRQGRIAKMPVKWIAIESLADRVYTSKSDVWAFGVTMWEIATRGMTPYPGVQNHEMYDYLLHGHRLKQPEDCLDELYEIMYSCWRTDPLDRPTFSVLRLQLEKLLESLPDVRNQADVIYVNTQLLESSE
SMILES,IC50 [1],IC50 [2],IC50 [3],IC50 [4]
"COc1cc2nccc(Oc3ccc(NC(=O)C4(C(=O)Nc5ccc(F)cc5)CC4)cc3)c2cc1-c1c(C)noc1C [Compound 184, 1-N-[4-[6-(3,5-dimethyl-1,2-oxazol-4-yl)-7-methoxyquinolin-4-yl]oxyphenyl]-1-N′-(4-fluorophenyl)cyclopropane-1,1-dicarboxamide]",0.01 to 0.1 µM,≤ 0.01 µM,0.01 to 0.1 µM,> 0.3 µM
"COc1cc2nccc(Oc3ccc(NC(=O)C4(C(=O)Nc5ccc(F)cc5)CC4)cc3)c2cc1-c1cnn(C)c1 [Compound 182, 1-N′-(4-fluorophenyl)-1-N-[4-[7-methoxy-6-(1-methylpyrazol-4-yl)quinolin-4-yl]oxyphenyl]cyclopropane-1,1-dicarboxamide]",0.01 to 0.1 µM,≤ 0.01 µM,0.01 to 0.1 µM,≤ 0.01 µM
"COC(=O)c1cc2nccc(Oc3ccc(NC(=O)C4(C(=O)Nc5ccc(F)cc5)CC4)cc3)c2cc1OC [Compound 150, methyl 4-[4-[[1-[(4-fluorophenyl)carbamoyl]cyclopropanecarbonyl]amino]phenoxy]-6-methoxyquinoline-7-carboxylate]",0.01 to 0.1 µM,≤ 0.01 µM,0.01 to 0.1 µM,≤ 0.01 µM
"COc1cc2nccc(Oc3ccc(NC(=O)C4(C(=O)Nc5ccc(F)cc5)CC4)cc3)c2cc1-c1ccc[nH]1 [Compound 188, 1-N′-(4-fluorophenyl)-1-N-[4-[7-methoxy-6-(1H-pyrrol-2-yl)quinolin-4-yl]oxyphenyl]cyclopropane-1,1-dicarboxamide]",0.01 to 0.1 µM,≤ 0.01 µM,0.01 to 0.1 µM,0.01 to 0.1 µM
"CNC(=O)c1cc2c(Oc3ccc(NC(=O)C4(C(=O)Nc5ccc(F)cc5)CC4)cc3Cl)ccnc2cc1OC [Compound 134, 1-N′-[3-chloro-4-[7-methoxy-6-(methylcarbamoyl)quinolin-4-yl]oxyphenyl]-1-N-(4-fluorophenyl)cyclopropane-1,1-dicarboxamide]",≤ 0.01 µM,≤ 0.01 µM,≤ 0.01 µM,≤ 0.01 µM
"Cc1cc2c(Oc3ccc(NC(=O)C4(C(=O)Nc5ccc(F)cc5)CC4)cc3)ccnc2cc1C(N)=O [Compound 142, 1-N-[4-(7-carbamoyl-6-methylquinolin-4-yl)oxyphenyl]-1-N′-(4-fluorophenyl)cyclopropane-1,1-dicarboxamide]",≤ 0.01 µM,≤ 0.01 µM,0.01 to 0.1 µM,0.01 to 0.1 µM
"COc1cc2nccc(Oc3ccc(NC(=O)C4(C(=O)Nc5ccc(F)cc5)CC4)cc3Cl)c2cc1C(=O)O [Compound 130, 4-[2-chloro-4-[[1-[(4-fluorophenyl)carbamoyl]cyclopropanecarbonyl]amino]phenoxy]-7-methoxyquinoline-6-carboxylic acid]",0.01 to 0.1 µM,0.01 to 0.1 µM,> 0.3 µM,> 0.3 µM
"CN1CC(NC(=O)c2ccc3nccc(Oc4ccc(NC(=O)C5(C(=O)Nc6ccc(F)cc6)CC5)cc4)c3c2)C1 [Compound 60, 1-N′-(4-fluorophenyl)-1-N-[4-[6-[(1-methylazetidin-3-yl)carbamoyl]quinolin-4-yl]oxyphenyl]cyclopropane-1,1-dicarboxamide]",0.01 to 0.1 µM,0.01 to 0.1 µM,0.1 to 0.3 µM,> 0.3 µM

# Now from value to molecule:
IC50 [1],IC50 [2],IC50 [3],IC50 [4],SMILES
≤ 0.01 µM,≤ 0.01 µM,0.01 to 0.1 µM,≤ 0.01 µM,"COc1cc2nccc(Oc3ccc(NC(=O)C4(C(=O)Nc5ccc(F)cc5)CC4)cc3)c2cc1-c1nnco1 [Compound 220, 1-N′-(4-Fluorophenyl)-1-N-[4-[7-methoxy-6-(1,3,4-oxadiazol-2-yl)quinolin-4-yl]oxyphenyl]cyclopropane-1,1-dicarboxamide]"
0.01 to 0.1 µM,≤ 0.01 µM,0.01 to 0.1 µM,0.01 to 0.1 µM,"COc1cc2nccc(Oc3ccc(NC(=O)C4(C(=O)Nc5ccc(F)cc5)CC4)cc3)c2cc1-c1ccc(C)o1 [Compound 180, 1-N′-(4-fluorophenyl)-1-N-[4-[7-methoxy-6-(5-methylfuran-2-yl)quinolin-4-yl]oxyphenyl]cyclopropane-1,1-dicarboxamide]"
0.01 to 0.1 µM,≤ 0.01 µM,0.01 to 0.1 µM,0.01 to 0.1 µM,"COc1cc2nccc(Oc3ccc(NC(=O)C4(C(=O)Nc5ccc(F)cc5)CC4)cc3)c2cc1N1CCC1 [Compound 198, 1-N-[4-[6-(azetidin-1-yl)-7-methoxyquinolin-4-yl]oxyphenyl]-1-N′-(4-fluorophenyl)cyclopropane-1,1-dicarboxamide]"
0.01 to 0.1 µM,≤ 0.01 µM,0.01 to 0.1 µM,≤ 0.01 µM,"COc1cc2nccc(Oc3ccc(NC(=O)C4(C(=O)Nc5ccc(F)cc5)CC4)cc3)c2cc1-c1ccn[nH]1 [Compound 185, 1-N′-(4-fluorophenyl)-1-N-[4-[7-methoxy-6-(1H-pyrazol-5-yl)quinolin-4-yl]oxyphenyl]cyclopropane-1,1-dicarboxamide]"
0.01 to 0.1 µM,≤ 0.01 µM,0.1 to 0.3 µM,> 0.3 µM,"COc1cc2nccc(Oc3ccc(NC(=O)C4(C(=O)Nc5ccc(F)cc5)CC4)cc3)c2cc1C(=O)N1CCC1 [Compound 15, 1-N-[4-[6-(azetidine-1-carbonyl)-7-methoxyquinolin-4-yl]oxyphenyl]-1-N′-(4-fluorophenyl)cyclopropane-1,1-dicarboxamide]"
0.01 to 0.1 µM,≤ 0.01 µM,0.01 to 0.1 µM,≤ 0.01 µM,"COc1cc2nccc(Oc3ccc(NC(=O)C4(C(=O)Nc5ccc(F)cc5)CC4)cc3)c2cc1-c1cn[nH]c1 [Compound 186, 1-N′-(4-fluorophenyl)-1-N-[4-[7-methoxy-6-(1H-pyrazol-4-yl)quinolin-4-yl]oxyphenyl]cyclopropane-1,1-dicarboxamide]"
0.01 to 0.1 µM,≤ 0.01 µM,0.01 to 0.1 µM,≤ 0.01 µM,"COc1cc2nccc(Oc3ccc(NC(=O)C4(C(=O)Nc5ccc(F)cc5)CC4)cc3)c2cc1C(=O)NC1COC1 [Compound 13, 1-N′-(4-fluorophenyl)-1-N-[4-[7-methoxy-6-(oxetan-3-ylcarbamoyl)quinolin-4-yl]oxyphenyl]cyclopropane-1,1-dicarboxamide]"
0.01 to 0.1 µM,≤ 0.01 µM,0.1 to 0.3 µM,> 0.3 µM,"COc1cc2nccc(Oc3ccc(NC(=O)C4(C(=O)Nc5ccc(F)cc5)CC4)cc3)c2cc1C1(O)CNC1 [Compound 197, 1-N′-(4-fluorophenyl)-1-N-[4-[6-(3-hydroxyazetidin-3-yl)-7-methoxyquinolin-4-yl]oxyphenyl]cyclopropane-1,1-dicarboxamide]"
0.01 to 0.1 µM,≤ 0.01 µM,0.01 to 0.1 µM,0.1 to 0.3 µM,"CNC(=O)c1cc2nccc(Oc3ccc(NC(=O)C4(C(=O)Nc5ccc(F)cc5)CC4)cc3)c2cc1C [Compound 143, 1-N′-(4-fluorophenyl)-1-N-[4-[6-methyl-7-(methylcarbamoyl)quinolin-4-yl]oxyphenyl]cyclopropane-1,1-dicarboxamide]"
0.01 to 0.1 µM,≤ 0.01 µM,0.1 to 0.3 µM,0.1 to 0.3 µM,"COc1cc2nccc(Oc3ccc(NC(=O)C4(C(=O)Nc5ccc(F)cc5)CC4)cc3)c2cc1C(=O)N1CC(O)C1 [Compound 16, 1-N′-(4-fluorophenyl)-1-N-[4-[6-(3-hydroxyazetidine-1-carbonyl)-7-methoxyquinolin-4-yl]oxyphenyl]cyclopropane-1,1-dicarboxamide]"
